Data published in the Kinase Knowledgebase extract (Sharma et al. 2016).
In brackets after ≈: the same amount, converted by molar mass.

Legend:
EGFR = EGFR (UniProt P00533); settings: for inhibition: concentration not given here
EGFR (human) [1] = biological target: EGFR (human) (UniProt P00533); settings: sk-br-3
EGFR (human) [2] = biological target: EGFR (human) (UniProt P00533); settings: mda-mb-435
EGFR (human) [3] = biological target: EGFR (human) (UniProt P00533); settings: ddp
EGFR (human) [4] = biological target: EGFR (human) (UniProt P00533); settings: a2780
EGFR (human) [5] = biological target: EGFR (human) (UniProt P00533); settings: sw 620
EGFR (human) [6] = biological target: EGFR (human) (UniProt P00533); settings: a431
EGFR (human) [7] = biological target: EGFR (human) (UniProt P00533); settings: 3t3

EGFR (human), sequence (P00533 whole entry, looked up): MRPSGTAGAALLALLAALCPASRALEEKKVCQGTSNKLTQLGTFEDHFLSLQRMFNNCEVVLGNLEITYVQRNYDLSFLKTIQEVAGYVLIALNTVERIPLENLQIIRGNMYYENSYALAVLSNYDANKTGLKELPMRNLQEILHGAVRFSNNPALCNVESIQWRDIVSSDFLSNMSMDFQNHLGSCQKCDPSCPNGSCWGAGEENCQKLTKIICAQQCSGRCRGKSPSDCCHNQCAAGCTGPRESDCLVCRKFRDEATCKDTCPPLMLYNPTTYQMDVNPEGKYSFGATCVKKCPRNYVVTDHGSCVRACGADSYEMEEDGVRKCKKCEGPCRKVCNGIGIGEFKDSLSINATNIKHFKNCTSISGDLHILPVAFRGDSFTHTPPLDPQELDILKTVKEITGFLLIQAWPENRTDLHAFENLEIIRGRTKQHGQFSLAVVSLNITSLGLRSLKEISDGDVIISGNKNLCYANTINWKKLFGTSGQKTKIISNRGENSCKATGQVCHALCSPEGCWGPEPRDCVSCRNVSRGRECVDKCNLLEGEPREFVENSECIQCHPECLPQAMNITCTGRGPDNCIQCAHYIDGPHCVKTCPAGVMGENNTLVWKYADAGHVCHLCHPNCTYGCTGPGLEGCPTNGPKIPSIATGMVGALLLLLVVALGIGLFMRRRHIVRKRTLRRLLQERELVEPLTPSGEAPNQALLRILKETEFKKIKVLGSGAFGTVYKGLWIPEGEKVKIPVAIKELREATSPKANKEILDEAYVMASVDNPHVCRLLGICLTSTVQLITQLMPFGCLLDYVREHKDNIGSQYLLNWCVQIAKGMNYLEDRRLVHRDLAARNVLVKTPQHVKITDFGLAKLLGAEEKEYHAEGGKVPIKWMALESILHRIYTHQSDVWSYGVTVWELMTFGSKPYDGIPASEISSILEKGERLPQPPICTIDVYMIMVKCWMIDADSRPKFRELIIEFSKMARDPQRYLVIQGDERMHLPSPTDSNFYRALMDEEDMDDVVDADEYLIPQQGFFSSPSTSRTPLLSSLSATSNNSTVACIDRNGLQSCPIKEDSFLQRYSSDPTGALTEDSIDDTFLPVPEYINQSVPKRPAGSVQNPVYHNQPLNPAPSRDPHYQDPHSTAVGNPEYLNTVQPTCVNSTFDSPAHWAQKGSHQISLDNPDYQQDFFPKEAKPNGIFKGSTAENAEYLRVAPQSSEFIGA
EGFR, sequence (P00533 whole entry, looked up): as above

IC50 (EGFR (human) [1]) | IC50 (EGFR (human) [2]) | IC50 (EGFR (human) [5]) | IC50 (EGFR (human) [7]) | SMILES | inhibition (EGFR) | IC50 (EGFR (human) [6]) | other results
 |  |  |  | COc1cc2ncc(C#N)c(Nc3ccc4[nH]ncc4c3)c2cc1OC | 0% |  | 
 |  |  |  | COc1cc2ncc(C#N)c(Nc3cccc4ncccc34)c2cc1OC | 0% |  | 
 |  |  |  | CCOc1cc2ncc(C#N)c(Nc3ccc4c(c3)NCC4)c2cc1OCC | 6% |  | IC50 (EGFR): > 10000 nM
 |  |  |  | COc1cc2ncc(C#N)c(Nc3cccc4cnccc34)c2cc1OC | 0% |  | 
0.0281 µg/mL (≈ 0.0725 µM) | 0.028 µg/mL (≈ 0.0723 µM) |  | 0.0923 µg/mL (≈ 0.238 µM) | CCOc1cc2ncc(C#N)c(Nc3ccc4c(c3)CCC4=O)c2cc1OCC |  | 0.0244 µg/mL (≈ 0.063 µM) | 
> 5 µg/mL | > 5 µg/mL | 2.92 µg/mL (≈ 6.98 µM) | > 5 µg/mL | CCOc1cc2ncc(C#N)c(Nc3ccc4[nH]c(=O)oc(=O)c4c3)c2cc1OCC |  | > 5 µg/mL | 
> 5 µg/mL | > 5 µg/mL | > 5 µg/mL | > 5 µg/mL | CCOc1cc2ncc(C#N)c(Nc3ccc4c(=O)[nH][nH]c(=O)c4c3)c2cc1OCC |  | > 5 µg/mL | 
0.429 µg/mL (≈ 1.03 µM) |  | 0.325 µg/mL (≈ 0.782 µM) |  | CCOc1cc2ncc(C#N)c(Nc3ccc4c(C)cc(=O)oc4c3)c2cc1OCC |  | 0.369 µg/mL (≈ 0.888 µM) | IC50 (EGFR (human) [3]): 0.249 µg/mL (≈ 0.599 µM); IC50 (EGFR (human) [4]): 0.27 µg/mL (≈ 0.65 µM)
0.336 µg/mL (≈ 0.797 µM) | 0.0033 µg/mL (≈ 0.00783 µM) | 0.146 µg/mL (≈ 0.346 µM) | 0.392 µg/mL (≈ 0.93 µM) | CCOc1cc2ncc(C#N)c(Nc3ccc4c(c3)S(=O)(=O)C=C4)c2cc1OCC |  |  | 
2.09 µg/mL (≈ 5.83 µM) | 2.63 µg/mL (≈ 7.31 µM) | 4.31 µg/mL (≈ 12 µM) | 3.22 µg/mL (≈ 8.96 µM) | CCOc1cc2c(Nc3ccc4cn[nH]c4c3)c(C#N)cnc2cc1OC |  |  | 
 |  |  |  | COc1cc2ncc(C#N)c(Nc3ccc4[nH]ccc4c3)c2cc1OC |  |  | IC50 (EGFR): 1.5 to 4 nM
 |  |  |  | Cn1ccnc1Sc1ccc(Nc2c(C#N)cnc3ccc(/C=C/C(N)=O)cc23)cc1Cl |  |  | IC50 (EGFR): 10 nM
 |  |  |  | COc1cc2ncc(C#N)c(Nc3ccc(O)c4ncccc34)c2cc1OC | 0% |  | 
> 5 µg/mL | 2.04 µg/mL (≈ 4.72 µM) | > 5 µg/mL | > 5 µg/mL | COCCOc1cc2ncc(C#N)c(Nc3ccc4cn[nH]c4c3)c2cc1OCCOC |  |  | 
> 0.294 µg/mL | 0.352 µg/mL (≈ 0.943 µM) | < 0.0005 µg/mL | 0.525 µg/mL (≈ 1.41 µM) | CCOc1cc2ncc(C#N)c(Nc3ccc4c(c3)CCC4)c2cc1OCC |  |  | 
 |  |  |  | COc1cc2ncc(C#N)c(Nc3ccc4[nH]c(=O)sc4c3)c2cc1OC | 0% |  | 
0.281 µg/mL (≈ 0.718 µM) | 0.235 µg/mL (≈ 0.6 µM) | 0.411 µg/mL (≈ 1.05 µM) | 0.853 µg/mL (≈ 2.18 µM) | CCOc1cc2ncc(C#N)c(Nc3ccc4c(c3)OCCO4)c2cc1OCC |  |  | 
 |  |  |  | COc1cc2c(Nc3ccc4cn[nH]c4c3)c(C#N)cnc2cc1OCCN(C)C | 0% |  | 

SMILES | IC50 (EGFR (human) [1]) | IC50 (EGFR (human) [2]) | IC50 (EGFR (human) [5]) | IC50 (EGFR (human) [7]) | inhibition (EGFR) | IC50 (EGFR (human) [6]) | other results
CCOc1cc2ncc(C#N)c(Nc3ccc4cn[nH]c4c3)c2cc1OCC | 0.016 µg/mL (≈ 0.0428 µM) | 0.02 µg/mL (≈ 0.0536 µM) | 0.033 µg/mL (≈ 0.0884 µM) |  |  | 0.025 µg/mL (≈ 0.0669 µM) | IC50 (EGFR (human) [3]): 0.036 µg/mL (≈ 0.0964 µM); IC50 (EGFR (human) [4]): 0.032 µg/mL (≈ 0.0857 µM)
CCOc1cc2ncc(C#N)c(Nc3ccc4c(c3)C(=O)NCC(=O)N4C)c2cc1OCC | > 5 µg/mL | > 5 µg/mL | > 5 µg/mL |  |  | > 5 µg/mL | 
CCOc1cc2ncc(C#N)c(Nc3ccc4c[nH]nc4c3)c2cc1OC | 0.022 µg/mL (≈ 0.0612 µM) | 0.0359 µg/mL (≈ 0.0999 µM) | 0.0212 µg/mL (≈ 0.059 µM) |  |  |  | 
CCOc1cc2ncc(C#N)c(Nc3ccc4c(c3)C(=O)OC4)c2cc1OCC | > 5 µg/mL | 3.4 µg/mL (≈ 8.74 µM) | 1.56 µg/mL (≈ 4.02 µM) |  |  | > 5 µg/mL | 
CCOc1cc2ncc(C#N)c(Nc3ccc4cc[nH]c4c3)c2cc1OCC | 0.0374 to 0.18 µg/mL (≈ 0.1 to 0.483 µM) | 0.073 to 0.365 µg/mL (≈ 0.196 to 0.98 µM) | 0.286 to 0.326 µg/mL (≈ 0.768 to 0.875 µM) |  |  | 0.123 to 0.216 µg/mL (≈ 0.33 to 0.58 µM) | IC50 (EGFR (human) [3]): 0.313 µg/mL (≈ 0.84 µM); IC50 (EGFR (human) [4]): 0.231 µg/mL (≈ 0.62 µM)
